Source: PMC12967844 (Engineering Microbiology, 2025)

Target: PtlI (pentalenene oxygenase) (Streptomyces avermitilis, UniProt Q82IY3)
Conditions: E. coli co-expressing penA; substrate made in the cell; endogenous E. coli redox proteins

Sequence of PtlI (pentalenene oxygenase) (Q82IY3 whole entry): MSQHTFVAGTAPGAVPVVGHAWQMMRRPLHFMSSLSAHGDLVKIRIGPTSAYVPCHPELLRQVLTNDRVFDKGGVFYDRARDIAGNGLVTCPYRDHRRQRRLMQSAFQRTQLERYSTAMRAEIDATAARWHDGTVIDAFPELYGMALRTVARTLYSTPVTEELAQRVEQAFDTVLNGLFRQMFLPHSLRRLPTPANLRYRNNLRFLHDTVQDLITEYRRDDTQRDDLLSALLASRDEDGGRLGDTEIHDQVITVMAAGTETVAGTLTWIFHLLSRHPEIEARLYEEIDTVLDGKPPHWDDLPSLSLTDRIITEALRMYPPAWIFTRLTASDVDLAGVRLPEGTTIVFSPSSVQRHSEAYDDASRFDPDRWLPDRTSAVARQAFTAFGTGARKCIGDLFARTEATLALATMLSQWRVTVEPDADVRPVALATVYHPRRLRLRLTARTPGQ

CC1=C[C@@H]2CC(C)(C)C[C@@]23[C@H](C)CC[C@@H]13 [compound 3, pentalenene]
GC-MS of culture extracts, heterologous expression in E. coli: PtlI can catalyze a three-step oxidation in the cell
